Active and inactive are the calls of the source.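 How the source made its calls: active means EC50 at or below 10 µM; inactive means EC50 above 10 µM.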
The compounds below were run against cAMP-dependent protein kinase type I-alpha regulatory subunit (Bos taurus) + cAMP-dependent protein kinase catalytic subunit beta (Mus musculus) (UniProt P00514+P68181) (assay: compounds dissociating PKAc from R1A subunit – biochemical, fluorescence polarization, powder samples, late-stage follow-up (AID 588839)). Details: PKA-R1A dissociation, Cy5-IP20 fluorescence polarization.

EC50, inactive:
COC(=O)c1sc2ncccc2c1OCc1ccccc1Cl > 100 µM
Cc1csc(C(=O)O)c1NC(=O)c1ccc(F)cc1 > 100 µM
O=C(O)c1sc2ncccc2c1OCc1ccccc1 > 100 µM
O=C(O)c1sccc1NC(=O)c1c(Cl)cccc1Cl > 100 µM
CC(C)(C)c1ccc(COc2ccsc2C(=O)O)cc1 > 100 µM
O=C(O)c1sccc1SCc1ccc(Cl)c(Cl)c1 > 100 µM
O=C(O)c1sccc1SCc1ccc(Cl)cc1Cl > 100 µM
COC(=O)c1sc2ncccc2c1OCc1ccc(Cl)cc1Cl > 100 µM
Cc1ccc(COc2ccsc2C(=O)O)cc1 > 100 µM

Reference: PubChem BioAssay AID588839 (The Scripps Research Institute Molecular Screening Center, 2011)
